Molecules are shown by their SMILES.

For the test, the system named is HCV replicon (HCV 1b-377-neo replicon cells). Put plainly: HCV replicon cell line FRET assay. Conditions: Hepatitis C virus; HCV replicon cell line, FRET assay; read-out: Replicon Inhibition Range EC50. It counts as cell-based. Background: A replicon is a self-replicating genome or part of one, used to study replication in cells.
One may read the EC50 as the concentration giving half of the maximal effect. As to `CN1C(=O)C(c2ccc(NC(=O)[C@@H]3CCCN3C(=O)OCc3ccccc3)cc2)S/C1=N\Cc1ccccn1` (stereo partly shown) [Compound 87], the half-maximal effective concentration (EC50) is 0.1 to 1 µM.

For the molecule `Cc1ccc(/N=C2\SC(c3ccc(NC(=O)[C@H](C)NC(=O)OCc4ccccc4)cc3)C(=O)N2Cc2ccco2)c(Cl)c1` (stereo partly shown) [Compound 41], the EC50 was 1 to 5 µM.

In the case of `C[C@H](NC(=O)OCc1ccccc1)C(=O)Nc1ccc(C2S/C(=N\c3cccc(F)c3)N(Cc3ccc(F)c(F)c3F)C2=O)cc1` (stereo partly shown) [Compound 29], the 50% effective concentration (EC50) lay in the range of 1 to 5 µM.

For `C[C@H](NC(=O)OCc1ccccc1)C(=O)Nc1ccc(C2S/C(=N\c3ccc4c(c3)OCCO4)N(Cc3ccco3)C2=O)cc1` (stereo partly shown) [Compound 64], the EC50 was less than 0.1 µM.

As for `O=C(Nc1ccc(C2S/C(=N\c3ccc(N4CCOCC4)cc3)N(Cc3ccccn3)C2=O)cc1)[C@@H]1CCCN1C(=O)OCc1ccccc1` (stereo partly shown) [Compound 73], the 50% effective concentration (EC50) was less than 0.1 µM.

Turning to `CO[C@H](C(=O)N[C@@H](C)C(=O)Nc1ccc(C2S/C(=N\C(C)C)N(Cc3ccccn3)C2=O)cc1)c1ccccc1` (stereo partly shown) [Compound 122], the concentration giving a half-maximal response (EC50) was less than 0.1 µM.

For the molecule `O=C(Nc1ccc(C2S/C(=N\c3cccc(F)c3)N(Cc3ccccn3)C2=O)cc1)[C@@H]1CCCN1C(=O)Cc1ccccc1` (stereo partly shown) [Compound 97], the EC50 is less than 0.1 µM.

Regarding `O=C(Nc1ccc(C2S/C(=N\c3cccc(F)c3)N(Cc3ccco3)C2=O)cc1)[C@@H]1CCCN1C(=O)OCc1ccccc1` (stereo partly drawn) [Compound 2, 2S-{4-[2-(3-fluorophenylimino)-3-furan-2ylmethyl-4-oxo-thiazolidin-5yl]-phenylcarbamoyl}pyrrolidine-1-carboxylic acid benzyl ester], the EC50 was more than 5 µM.

On to `O=C(Nc1ccc(C2SC3=Nc4ccccc4CN3C2=O)cc1)[C@H]1CCCN1C(=O)OCc1ccccc1` (stereo partly shown) [Compound 139], for which the EC50 fell in the range of 0.1 to 1 µM.

On to `COc1ccc(CCN2C(=O)C(c3ccc(NC(=O)[C@@H]4CCCN4C(=O)OCc4ccccc4)cc3)S/C2=N\c2cccc(F)c2)cc1OC` (stereo partly shown) [Compound 30], for which the EC50 is 1 to 5 µM.

Turning to `O=C(Nc1ccc(C2S/C(=N\c3ccc(N4CCOCC4)cc3)N(c3ccccn3)C2=O)cc1)[C@@H]1CCCN1C(=O)OCc1ccccc1` (stereo partly shown) [Compound 94], the concentration giving a half-maximal response (EC50) was less than 0.1 µM.

For `Cc1cnc(CN2C(=O)C(c3ccc(NC(=O)[C@H](C)NC(=O)OCc4ccccc4)cc3)S/C2=N\c2ccc(N3CCOCC3)cc2)cn1` (stereo partly shown) [Compound 69], the EC50 was less than 0.1 µM.

For the molecule `COc1ccc(/N=C2\SC(c3ccc(NC(=O)[C@@H]4CCCN4C(=O)OCc4ccccc4)cc3)C(=O)N2Cc2ccco2)cn1` (stereo partly shown) [Compound 44], the EC50 lay within 0.1 to 1 µM.

Regarding `O=C(Nc1ccc(C2S/C(=N\c3ccc(N4CCOCC4)cc3)N(Cc3ccccn3)C2=O)cc1)[C@@H]1CCCN1C(=O)Cc1c(Cl)cccc1Cl` (stereo partly shown) [Compound 104], the EC50 was less than 0.1 µM.

Consider `O=C(Nc1ccc(C2S/C(=N\c3cccc(F)c3)N(Cc3ccco3)C2=O)cc1)[C@@H]1CCC(=O)N1C(=O)OCc1ccccc1` (stereo partly shown) [Compound 8], for which the EC50 was 0.1 to 1 µM.

Consider `O=C(Nc1ccc(C2S/C(=N\c3cccc4ccncc34)N(Cc3ccco3)C2=O)cc1)[C@@H]1CCCN1C(=O)OCc1ccccc1` (stereo partly shown) [Compound 11], for which the concentration for a half-maximal effect (EC50) is less than 0.1 µM.

For `C[C@H](NC(=O)OCc1ccccc1)C(=O)Nc1ccc(C2S/C(=N\c3cccc(Cl)c3)N(Cc3ccco3)C2=O)cc1` (stereo partly shown) [Compound 54], the concentration giving a half-maximal response (EC50) is 0.1 to 1 µM.

With `CCC(C)c1ccc(/N=C2\SC(c3ccc(NC(=O)[C@H](C)NC(=O)OCc4ccccc4)cc3)C(=O)N2Cc2ccco2)cc1` (stereo partly shown) [Compound 46], the concentration giving a half-maximal response (EC50) was 1 to 5 µM.

For `C[C@@H](C(=O)N1CCC[C@H]1C(=O)Nc1ccc(C2S/C(=N\c3ccc(N4CCOCC4)cc3)N(Cc3ccccn3)C2=O)cc1)c1ccccc1` (stereo partly shown) [Compound 115], the EC50 is less than 0.1 µM.

Take `C[C@H](NC(=O)OCc1ccccc1)C(=O)Nc1ccc(C2S/C(=N\c3cccc(F)c3)N(CC3CCCO3)C2=O)cc1` (stereo partly shown) [Compound 26]: the half-maximal effective concentration (EC50) is 0.1 to 1 µM.

In the case of `O=C(Nc1ccc(C2S/C(=N\c3cc(F)cc(F)c3)N(Cc3ccco3)C2=O)cc1)[C@@H]1CCCN1C(=O)OCc1ccccc1` (stereo partly shown) [Compound 42], the 50% effective concentration (EC50) lay in the range of 0.1 to 1 µM.

As for `O=C(Nc1ccc(C2S/C(=N\c3cccnc3)N(Cc3cccc(F)c3)C2=O)cc1)[C@@H]1CCCN1C(=O)OCc1ccccc1` (stereo partly shown) [Compound 77], the EC50 was less than 0.1 µM.

In the case of `C[C@H](NC(=O)Cc1ccccc1)C(=O)Nc1ccc(C2SC3=Nc4ccccc4CN3C2=O)cc1` (stereo partly shown) [Compound 137], the EC50 fell in the range of 0.1 to 1 µM.

Take `C[C@H](NC(=O)OCc1ccccc1)C(=O)Nc1ccc(C2S/C(=N\c3ccc(F)c(C(F)(F)F)c3)N(Cc3ccco3)C2=O)cc1` (stereo partly shown) [Compound 68]: the half-maximal effective concentration (EC50) was in the range of 1 to 5 µM.

Turning to `CCC(C)c1ccc(/N=C2\SC(c3ccc(NC(=O)[C@@H]4CCCN4C(=O)OCc4ccccc4)cc3)C(=O)N2Cc2ccco2)cc1` (stereo partly shown) [Compound 45], the EC50 lay within 0.1 to 1 µM.

Turning to `CCc1cccc(/N=C2\SC(c3ccc(NC(=O)[C@@H]4CCCN4C(=O)OCc4ccccc4)cc3)C(=O)N2Cc2ccco2)c1` (stereo partly shown) [Compound 36], the half-maximal effective concentration (EC50) lay within 1 to 5 µM.

On to `O=C(Nc1ccc(C2S/C(=N\c3ccc(N4CCOCC4)cc3)N(Cc3ccccn3)C2=O)cc1)[C@@H]1CCCN1C(=O)Cc1ccc(C(F)(F)F)cc1` (stereo partly shown) [Compound 109], for which the EC50 is 1 to 5 µM.

In the case of `C[C@H](NC(=O)OCc1ccccc1)C(=O)Nc1ccc(C2S/C(=N\c3ccc(F)cc3Cl)N(Cc3ccco3)C2=O)cc1` (stereo partly shown) [Compound 60], the EC50 was in the range of 1 to 5 µM.

On to `C[C@H](NC(=O)OCc1ccccc1)C(=O)Nc1ccc(C2S/C(=N\c3ccc(N4CCOCC4)cc3)N(Cc3ccncc3)C2=O)cc1` (stereo partly shown) [Compound 82], for which the EC50 is less than 0.1 µM.

As to `O=C(Nc1ccc(C2S/C(=N\c3cccc(F)c3)N(CCc3cccs3)C2=O)cc1)[C@@H]1CCCN1C(=O)OCc1ccccc1` (stereo partly shown) [Compound 20], the concentration giving a half-maximal response (EC50) fell in the range of 1 to 5 µM.

Consider `C[C@H](NC(=O)OCc1ccccc1)C(=O)Nc1ccc(C2S/C(=N\c3cccc(F)c3)N(CCOc3ccccc3)C2=O)cc1` (stereo partly shown) [Compound 21], for which the EC50 was 1 to 5 µM.

As to `O=C(Nc1ccc(C2S/C(=N\c3ccc(N4CCOCC4)cc3)N(Cc3ccccn3)C2=O)cc1)[C@@H]1CCCN1C(=O)C1(c2ccc(F)cc2)CCCC1` (stereo partly shown) [Compound 105], the concentration giving a half-maximal response (EC50) was in the range of 0.1 to 1 µM.

Take `CC(C)/N=C1\SC(c2ccc(NC(=O)[C@H](C)NC(=O)C(c3ccccc3)c3ccccc3)cc2)C(=O)N1Cc1ccccn1` (stereo partly shown) [Compound 123]: the concentration giving a half-maximal response (EC50) is less than 0.1 µM.

For `C[C@H](NC(=O)OCc1ccccc1)C(=O)Nc1ccc(C2S/C(=N\c3cccnc3)N(Cc3cccc(F)c3)C2=O)cc1` (stereo partly shown) [Compound 76], the EC50 is less than 0.1 µM.

In the case of `COc1cccc(CN2C(=O)C(c3ccc(NC(=O)[C@@H]4CCCN4C(=O)OCc4ccccc4)cc3)S/C2=N\c2cccc(F)c2)c1` (stereo partly shown) [Compound 13], the EC50 was in the range of 0.1 to 1 µM.

`O=C(Nc1ccc(C2S/C(=N\c3cccnc3)N(Cc3cccc(F)c3)C2=O)cc1)[C@@H]1CCCN1C(=O)Cc1ccccc1` (stereo partly shown) [Compound 100]: the EC50 was less than 0.1 µM.

Take `O=C(Nc1ccc(C2S/C(=N\c3ccc(N4CCOCC4)cc3)N(Cc3ccccn3)C2=O)cc1)[C@@H]1CCCN1C(=O)Cc1ccccc1` (stereo partly shown) [Compound 98]: the 50% effective concentration (EC50) is less than 0.1 µM.

Regarding `C[C@H](NC(=O)OCc1ccccc1)C(=O)Nc1ccc(C2S/C(=N\c3ccc(C(F)(F)F)cc3)N(Cc3ccco3)C2=O)cc1` (stereo partly shown) [Compound 62], the concentration giving a half-maximal response (EC50) fell in the range of 1 to 5 µM.

For `COc1ccc(CCN2C(=O)C(c3ccc(NC(=O)[C@H](C)NC(=O)OCc4ccccc4)cc3)S/C2=N\c2cccc(F)c2)cc1OC` (stereo partly shown) [Compound 28], the half-maximal effective concentration (EC50) lay within 1 to 5 µM.

`O=C(Nc1ccc(C2S/C(=N\c3ccc4c(c3)OCCO4)N(Cc3ccco3)C2=O)cc1)[C@@H]1CCCN1C(=O)OCc1ccccc1` (stereo partly shown) [Compound 63]: the EC50 is less than 0.1 µM.

Consider `C/N=C1\SC(c2ccc(NC(=O)[C@H](C)NC(=O)C(c3ccccc3)c3ccccc3)cc2)C(=O)N1Cc1ccccn1` (stereo partly shown) [Compound 111], for which the EC50 was less than 0.1 µM.

As for `Cc1cnc(CN2C(=O)C(c3ccc(NC(=O)[C@@H]4CCCN4C(=O)Cc4ccccc4)cc3)S/C2=N\c2ccc(N3CCOCC3)cc2)cn1` (stereo partly shown) [Compound 95], the EC50 is less than 0.1 µM.

On to `O=C(Nc1ccc(C2S/C(=N\c3cccc(F)c3)N(CCOc3ccccc3)C2=O)cc1)[C@@H]1CCCN1C(=O)OCc1ccccc1` (stereo partly shown) [Compound 17], for which the EC50 is 1 to 5 µM.

For `C[C@H](NC(=O)OCc1ccccc1)C(=O)Nc1ccc(C2S/C(=N\c3cccc(OC(F)(F)F)c3)N(Cc3ccco3)C2=O)cc1` (stereo partly shown) [Compound 56], the EC50 lay in the range of 0.1 to 1 µM.

On to `O=C(Nc1ccc(C2S/C(=N\c3ccc(N4CCOCC4)cc3)N(Cc3ccccn3)C2=O)cc1)[C@@H]1C[C@@H](O)CN1C(=O)OCc1ccccc1` (stereo partly shown) [Compound 78], for which the concentration for a half-maximal effect (EC50) lay in the range of 0.1 to 1 µM.

As for `C[C@@H](C(=O)Nc1ccc(C2S/C(=N\c3ccc(N4CCOCC4)cc3)N(Cc3ccccn3)C2=O)cc1)N(C)C(=O)OCc1ccccc1` (stereo partly shown) [Compound 74], the EC50 fell in the range of 0.1 to 1 µM.

Regarding `Cc1cnc(CN2C(=O)C(c3ccc(NC(=O)[C@@H]4CCCN4C(=O)OCc4ccccc4)cc3)S/C2=N\c2cccc(F)c2)cn1` (stereo partly shown) [Compound 5], the 50% effective concentration (EC50) was less than 0.1 µM.

With `C[C@H](NC(=O)OCc1ccccc1)C(=O)Nc1ccc(C2SC3=Nc4ccccc4CN3C2=O)cc1` (stereo partly shown) [Compound 138], the 50% effective concentration (EC50) was in the range of 1 to 5 µM.

On to `O=C(Nc1ccc(C2S/C(=N\c3ccc(F)c(Cl)c3)N(Cc3ccco3)C2=O)cc1)[C@@H]1CCCN1C(=O)OCc1ccccc1` (stereo partly shown) [Compound 51], for which the EC50 is 1 to 5 µM.

Take `CC(C)/N=C1\SC(c2ccc(NC(=O)[C@H](C)NC(=O)Cc3ccccc3)cc2)C(=O)N1Cc1ccccn1` (stereo partly shown) [Compound 102]: the half-maximal effective concentration (EC50) is less than 0.1 µM.

Regarding `O=C(Nc1ccc(C2S/C(=N\c3ccc(F)cc3Cl)N(Cc3ccco3)C2=O)cc1)[C@@H]1CCCN1C(=O)OCc1ccccc1` (stereo partly shown) [Compound 59], the EC50 was in the range of 1 to 5 µM.

In the case of `Cc1cnc(CN2C(=O)C(c3ccc(NC(=O)[C@H](C)NC(=O)OCc4ccccc4)cc3)S/C2=N\c2cccc(F)c2)cn1` (stereo partly shown) [Compound 6], the EC50 is less than 0.1 µM.

`CCOC(=O)/N=C1\SC(c2ccc(NC(=O)[C@H](C)NC(=O)OCc3ccccc3)cc2)C(=O)N1Cc1cccnc1` (stereo partly shown) [Compound 92]: the concentration giving a half-maximal response (EC50) was less than 0.1 µM.

For the molecule `CC(C)/N=C1\SC(c2ccc(NC(=O)[C@H](C)NC(=O)[C@@H](O)c3ccccc3)cc2)C(=O)N1Cc1ccccn1` (stereo partly shown) [Compound 120], the half-maximal effective concentration (EC50) is less than 0.1 µM.

As to `C[C@H](NC(=O)NCc1ccccc1)C(=O)Nc1ccc(C2S/C(=N\c3cccc(F)c3)N(Cc3ccco3)C2=O)cc1` (stereo partly shown) [Compound 133], the EC50 is 0.1 to 1 µM.

The values above are taken from patent US20050069522A1, “Combination pharmaceutical agents as inhibitors of HCV replication” (priority 2002, published 2005).
